Assay results taken from article PMC3641821 (2011).

Legend:
[1] = tested on: D1, d[5'-G3G5C5C3-3'] (DNA, duplex) GGGGGGGGCCCCCCCC; experiment: ITC; conditions: 100 mM KCl; 10 mM sodium cacodylate, 0.5 mM EDTA, pH 6.8, 25 °C
[2] = tested on: D4, d[5'-A3G5C5T3-3'] (DNA, duplex) AAAGGGGGCCCCCTTT; experiment: ITC; conditions: 100 mM KCl; 10 mM sodium cacodylate, 0.5 mM EDTA, pH 6.8, 25 °C
[3] = tested on: D2, d[5'-G2A6T6C2-3'] (DNA, duplex) GGAAAAAATTTTTTCC; experiment: ITC; conditions: 100 mM KCl; 10 mM sodium cacodylate, 0.5 mM EDTA, pH 6.8, 25 °C; site 1 of 2
[4] = tested on: D11, d[5'-(AT)8-3'] (DNA, duplex) ATATATATATATATAT; experiment: ITC; conditions: 100 mM KCl; 10 mM sodium cacodylate, 0.5 mM EDTA, pH 6.8, 25 °C
[5] = tested on: D9, d[5'-G3(AT)5C3-3'] (DNA, duplex) GGGATATATATATCCC; experiment: ITC; conditions: 100 mM KCl; 10 mM sodium cacodylate, 0.5 mM EDTA, pH 6.8, 25 °C
[6] = tested on: D5, d[5'-A12-x-T12-3'] (intramolecular duplex) (DNA, hairpin, x = hexaethylene glycol linker between positions 12 and 13) AAAAAAAAAAAATTTTTTTTTTTT; experiment: ITC; conditions: 100 mM KCl; 10 mM sodium cacodylate, 0.5 mM EDTA, pH 6.8, 25 °C; site 1 of 2
[7] = tested on: D3, d[5'-G3A5T5C3-3'] (DNA, duplex) GGGAAAAATTTTTCCC; experiment: ITC; conditions: 100 mM KCl; 10 mM sodium cacodylate, 0.5 mM EDTA, pH 6.8, 25 °C; site 1 of 2
[8] = tested on: D6, d[5'-A30T30-3'] (DNA, duplex) AAAAAAAAAAAAAAAAAAAAAAAAAAAAAATTTTTTTTTTTTTTTTTTTTTTTTTTTTTT; experiment: ITC; conditions: 100 mM KCl; 10 mM sodium cacodylate, 0.5 mM EDTA, pH 6.8, 25 °C; site 1 of 2
[9] = tested on: D8, d[5'-A2GAG2AGAGA2GAGAG2AGA2-3'] 22-mer duplex (DNA, duplex) AAGAGGAGAGAAGAGAGGAGAA/TTCTCCTCTCTTCTCTCCTCTT; experiment: ITC; conditions: 100 mM KCl; 10 mM sodium cacodylate, 0.5 mM EDTA, pH 6.8, 25 °C; site 1 of 2
[10] = tested on: poly(dA.dT)2 (DNA, polymer) AT; experiment: UV melting; conditions: K+ 100 or 150 mM; Na+ 10 mM (cacodylate); rbd 10; per base

Structure (SMILES) | K1 [1] | K1 [2] | K1 [3] | K1 [4] | K1 [5] | K1 [6] | K1 [7] | K1 [8] | K1 [9] | ΔTm [10]
NC[C@@H]1O[C@H](O[C@H]2[C@@H](O)[C@H](O[C@@H]3[C@@H](O)[C@H](N)C[C@H](N)[C@H]3O[C@H]3O[C@H](CN)[C@@H](O)[C@H](O)[C@H]3N)O[C@@H]2CO)[C@H](N)[C@@H](O)[C@@H]1O | 3.80 ± 0.18 × 10^5 M^-1 | 2.02 ± 0.20 × 10^5 M^-1 |  |  |  |  |  |  |  | 
NC[C@@H]1O[C@H](O[C@H]2[C@@H](O)[C@H](O[C@@H]3[C@@H](O)[C@H](N)C[C@H](N)[C@H]3O[C@H]3O[C@H](CN)[C@@H](O)[C@H](O)[C@H]3N)O[C@@H]2CSCCNC(=S)NCCOCCOCCNC(=S)NCCSC[C@H]2O[C@@H](O[C@@H]3[C@@H](O)[C@H](N)C[C@H](N)[C@H]3O[C@H]3O[C@H](CN)[C@@H](O)[C@H](O)[C@H]3N)[C@H](O)[C@@H]2O[C@H]2O[C@@H](CN)[C@@H](O)[C@H](O)[C@H]2N)[C@H](N)[C@@H](O)[C@@H]1O | 0.27 ± 0.02 × 10^7 M^-1 | 7.75 ± 1.70 × 10^5 M^-1 | 12.9 ± 3.4 × 10^7 M^-1 | 5.88 ± 2.90 × 10^7 M^-1 | 0.54 ± 0.15 × 10^7 M^-1 | 28.2 ± 12.0 × 10^7 M^-1 | 25.3 ± 10.0 × 10^7 M^-1 | 129.2 ± 54.1 × 10^7 M^-1 | 1.78 ± 1.00 × 10^7 M^-1 | ~ 11 °C
